Data reported in paper PMC11288129, “Diversely evolved xibalbin variants from remipede venom inhibit potassium channels and activate PKA-II and Erk1/2 signaling” (BMC Biology, 2024).
Positions of bridges follow the written chain, without caps; N, C: chain ends. No end group written: not given here.

Tests used:
[1] = test system: rNav1.2; experiment: TEVC inhibition, Nav1.2; assay type: cell-based, rat; conditions: 1 µM, Xenopus oocytes, ND96, 18–22 °C, mean ± SEM, n ≥ 3
Excerpt: For the expression of Kv channels rat Kv1.1 (GenBank accession number: NM_173095 [88, 89]), rKv1.2 (NM_012970 [90, 91]), human Kv1.3 (NM_002232 [92, 93]), rKv1.4 (NM_012971 [94, 95]), rKv1.6 (NM_023954 [96, 97]), hKv2.1 (NM_004975 [98, 99]), hKv3.1 (NM_004976 [100, 101]), rKv4.2 (NM_031739 [102, 103]), hKv10.1 (NM_172362 [104, 105]), hERG1 [Kv11.1, (NM_000238 [106, 107])], and Shaker IR [from Drosophila melanogaster, (NM_167595 [108, 109])], Nav channels [rNav1.2 (NM_012647 [42, 110]), rNav1.4 (NM_013178 [111, 112]), hNav1.5 (NM_198056 [113, 114]), mNav1.6 (NM_001077499 [115, 116]), BgNav [from Blattella germanica, (DQ466887 [117, 118])] and the auxiliary subunits rβ1 (NM_001271045 [119, 120]), hβ1 (NM_001037 [121, 122]), and TipE [from D. melanogaster, (NM_079196 [109, 123])], and Cav channels hCav3.1 [124, 125], hCav3.2 [126, 127], and hCav3.3 [128, 129] in Xenopus oocytes, the linearized plasmids were transcribed using the T7 or SP6 mMESSAGEmMACHINE transcription kit (Ambion, Austin, TX, USA). […]
Whole-cell currents of oocytes were recorded 1 to 3 days after injection. […] The current–voltage (IV) relationships were determined by 100-ms step depolarizations between − 90 and + 40 mV, using 5 mV increments. […]

[2] = test system: THP-1 cell adhesion to HMECs; experiment: Adhesion of THP-1 leukocytes onto TNF-activated endothelial cells; assay type: cell-based, human; conditions: 25 µg/ml
Description: Nitric oxide has a complex and diverse role in pain modulation. […] Finally, we analyzed the effects of xibalbins on the leukocyte adhesion to the vascular endothelium, which is a critical step in the inflammatory response of inflamed tissues. Xibalbins were analyzed for their ability to alter the adhesion of human monocytic (THP-1) cells onto a TNF-activated endothelial cell monolayer (Additional File 5: Figure S4). […] All individual values for these experiments are given in Additional File 8: Table S3.
Supplementary file 12915_2024_1955_MOESM5_ESM.jpg: Additional file 5: Figure S4. Effects of xibalbins on cytotoxicity in RAW264.7 macrophages and adhesion of leukocytes onto the vascular endothelium. (i) For the viability assay, RAW264.7 cells were treated with 25 μg/ml concentrations of xibalbins for 24 h. Cells were incubated with WST-8 and the formed formazan was detected by absorbance measurements. (ii) For the proliferation assay, HMEC-1 cells were grown in low density and treated after 24 h with the indicated peptide for 72 h. Cells were stained with crystal violet solution. The amount of DNA-bound crystal violet was detected by absorbance measurements. […] The adhesion of leukocytes onto endothelial cells was quantified by fluorescence measurements using a Tecan Infinite F200 Pro microplate reader (Tecan, Männedorf, Switzerland) (excitation: 485 nm, emission: 535 nm). […]

KRSCIRRFGRCDHRPNDCCYNSSCRCNLWGSNCRCQRMGLFQKWGK (disulfide 4-19, 11-24, 18-35, 26-33) [xib13]
inhibition of Nav1.2 [1]: 15.6 ± 2.6%
Prevention of Leukocyte Adh. on HMEC-1 [2]: 106.6
